Where a SMILES comes first, the peptide text is derived from it. The star is where a group is joined. Cbz = O=C(OCc1ccccc1)*
How the values were obtained:
Format in all cases: cell-based, human
CAFs = assay: Real-time qPCR of GPR68 and IL-6 expression in CAFs at pH 6.8 with PKA or CREB inhibitors; settings: CAFs cultured 6 h in pH 6.8 media, normalized to pH 7.4
Procedure: FIG. 6A show CAFs transfected with control or GPR68 siRNA were cultured in pH media for 30 min, treated with 1 mM IBMX for 10 min and cellular cAMP was measured by the HitHunter cAMP assay. Data are mean±SEM, n=3, two-way ANOVA, *p<0.05, ****p<0.0001. […] Results were normalized to those at pH 7.4. n=3, data are mean±SEM, unpaired t test, **p<0.01, ***p<0.001, ns=non-significant. […] Activation of CREB is shown as p-CREB/CREB. Data are mean±SEM, n=3, unpaired t test, *p<0.05. […] Results are normalized to those at pH 7.4. Data are mean±SEM, n=3, unpaired t test, **p<0.01, ***p<0.001, ns=non-significant.
(§1) RNA isolated using an RNeasy kit with DNase treatment (Qiagen) and converted to cDNA using an iScript cDNA Synthesis Kit (Bio-Rad, Irvine, Calif., USA). cDNA was mixed with gene-specific primers and SYBR green reagent (Quanta Biosciences, Gaithersburg, Md., USA) for PCR amplification using a DNA Engine Opticon 2 system (MJ Research, Waltham, Mass., USA). Primers were designed using Primer Premier 6 software (PREMIER Biosoft, Palo Alto, Calif., USA). Gene expression was quantified as ΔCt using 18S rRNA as the reference gene. Expression of different cells was compared as fold-change=2(AACt). RNA isolated using an RNeasy kit with DNase treatment (Qiagen) and converted to cDNA using an iScript cDNA Synthesis Kit (Bio-Rad, Irvine, Calif., USA). cDNA was mixed with gene-specific primers and SYBR green reagent (Quanta Biosciences, Gaithersburg, Md., USA) for PCR amplification using a DNA Engine Opticon 2 system (MJ Research, Waltham, Mass., USA). Primers were designed using Primer Premier 6 software (PREMIER Biosoft, Palo Alto, Calif., USA). Gene expression was quantified as ΔCt using 18S rRNA as the reference gene. Expression of different cells was compared as fold-change=2(AACt). […] Gene expression was quantified as ΔCt using 18S rRNA as the reference gene. […]
The pH media are DMEM containing 5 g/L glucose, 20 mM HEPES, 20 mM NaHCO3, 2% FBS, 100 I.U./ml penicillin and 100 μg/ml streptomycin, pH adjusted by HCl or NaOH at room temperature. […] Cell viability were assessed by a CEllTiter-Glo Luminescent assay (Promega) and detected using a DXT 800 multimode plate reader (Beckman Coulter, Carlsbad, Calif., USA).

PSCs [1] = assay: Real-time qPCR of GPR68 expression in PSCs incubated with TNFα and NF-κB inhibitors; settings: 6 h, TNFα 50 ng/mL; MG-132 20 μM, IKK2 inhibitor VI 5 μM, JSH-23 20 μM, CAY10512 0.3 μM
From the text: (§2) FIGS. 3A-3D show co-culture of PDAC cells and PSCs increases expression by PSCs of GPR68 and fibrotic genes, effects mediated by TNFα and TGFβ, respectively. […] Relative expression was compared by 2^(ΔCt control-ΔCtco-culture). Data are mean±SEM, n=3, unpaired t test, *p<0.05, **p<0.01, ***p<0.001, ****p<0.0001. […] Relative expression was compared by 2^(ΔCt control-ΔCtTGFβ1 or ΔCtTNFα). Data are mean±SEM, n=3, unpaired t test, *p<0.05, **p<0.01, ****p<0.0001. […] Relative expression was compared to control by 2(ΔCt control-ΔCtco-culture). Data are mean±SEM, n=3, unpaired t test, *p<0.05. […] Relative expression was normalized to control by 2(ΔCt^control-ΔCtTGFβ1 or ^ΔCtTNFα) n=3, data are mean±SEM, unpaired t test, *p<0.05, **p<0.01, ****p<0.0001.
as §1

PSCs [2] = assay: Real-time qPCR of gene expression in PSCs incubated with TGFβ1 or TNFα; settings: PSCs incubated 48 h with 50 ng/mL
From the text: as §2
RNA isolated using an RNeasy kit with DNase treatment (Qiagen) and converted to cDNA using an iScript cDNA Synthesis Kit (Bio-Rad, Irvine, Calif., USA). cDNA was mixed with gene-specific primers and SYBR green reagent (Quanta Biosciences, Gaithersburg, Md., USA) for PCR amplification using a DNA Engine Opticon 2 system (MJ Research, Waltham, Mass., USA). Primers were designed using Primer Premier 6 software (PREMIER Biosoft, Palo Alto, Calif., USA). Gene expression was quantified as ΔCt using 18S rRNA as the reference gene. Expression of different cells was compared as fold-change=2(AACt). RNA isolated using an RNeasy kit with DNase treatment (Qiagen) and converted to cDNA using an iScript cDNA Synthesis Kit (Bio-Rad, Irvine, Calif., USA). cDNA was mixed with gene-specific primers and SYBR green reagent (Quanta Biosciences, Gaithersburg, Md., USA) for PCR amplification using a DNA Engine Opticon 2 system (MJ Research, Waltham, Mass., USA). Primers were designed using Primer Premier 6 software (PREMIER Biosoft, Palo Alto, Calif., USA). Gene expression was quantified as ΔCt using 18S rRNA as the reference gene. Expression of different cells was compared as fold-change=2(AACt). The primer sequences are: 18S-F: 5′-[…]-3′ (SEQ ID NO: 1); 18S-R: 5′-[…]-3′ (SEQ ID NO: 2); GPR68-F: 5′-CCTTCCGCTTCCACCAGTT-3′ (SEQ ID NO: 3); GPR68-R: 5′-TCGTCCTCGATGACCTCCT-3′ (SEQ ID NO: 4); ACTA2-F: 5′-[…]-3′ (SEQ ID NO: 5); ACTA2-R: 5′-[…]-3′ (SEQ ID NO: 6); COL1A1-F: 5′-[…]-3′ (SEQ ID NO: 7); COL1A1-R: 5′-[…]-3′ (SEQ ID NO: 8); IL6-F: 5′-[…]-3′ (SEQ ID NO: 9); IL6-R: 5′-[…]-3′ (SEQ ID NO: 10); COL3A1-F: 5′-GCTGGCTACTTCTCGCTCT-3′ (SEQ ID NO: 11); COL3A1-R: 5′-[…]-3′ (SEQ ID NO: 12); POSTN-F: 5′-[…]-3′ (SEQ ID NO: 13); POSTN-R: 5′-[…]-3′ (SEQ ID NO: 14); CTGF-F: 5′-[…]-3′ (SEQ ID NO: 15); CTGF-R: 5′-GCTACAGGCAGGTCAGTGA-3′ (SEQ ID NO: 16); PDGFRB-F: 5′-[…]-3′ (SEQ ID NO: 17); PDGFRB-R: 5′-[…]-3′ (SEQ ID NO: 18). Gene expression was quantified as ΔCt using 18S rRNA as the reference gene. We compared expression of different cells as fold-change=2(AACt).

O=S(=O)(NCCNC/C=C/c1ccc(Br)cc1)c1cccc2cnccc12 [H89]
GPR68 expression in CAFs (CAFs): did not alter | pH 6.8-promoted increase in IL-6 expression by CAFs (CAFs): blocked

NC(=O)Nc1sc(-c2ccccc2)cc1C(N)=O [IKK2 inhibitor VI]
TNFα-promoted increase in GPR68 expression in PSCs (PSCs [1]): reduced

Cc1ccc(NCCCc2ccccc2)c(N)c1 [JSH-23]
TNFα-promoted increase in GPR68 expression in PSCs (PSCs [1]): reduced

CC(C)C[C@@H](C=O)NC(=O)[C@H](CC(C)C)NC(=O)[C@H](CC(C)C)NC(=O)OCc1ccccc1 [MG132] (Cbz-Leu-Leu-Leu-aldehyde)
TNFα-promoted increase in GPR68 expression in PSCs (PSCs [1]): reduced

TGFβ1: Transforming growth factor beta 1, a driver of PSC activation
ACTA2 expression (PSCs [2]): increased expression | COL1A1 expression (PSCs [2]): increased expression | GPR68 expression (PSCs [2]; result in words): did not change

TNFα
ACTA2 expression (PSCs [2]): not higher | COL1A1 expression (PSCs [2]): not higher | expression of GPR68 (PSCs [2]; higher vs control): 18 fold | expression of IL-6 (PSCs [2]; higher vs control): 31 fold

O=C(Nc1ccc(Cl)cc1)c1cc2ccccc2cc1O [naphthol AS-E]
GPR68 expression in CAFs (CAFs): without altering | pH 6.8-promoted increase in IL-6 expression by CAFs (CAFs): blunted

From patent US11674963B2, “GPCRs in cancer-associated fibroblasts” (The Regents of the University of California, priority 2017, dated 2023)
